Measurements reported in patent US20070020234A1, “Inhibition of tumor angiogenesis by combination of thrombospondin-1 and inhibitors of vascular endothelial growth factor” (priority 2003, published 2007).
“Also recorded” adds a separate entry of the source.

Key:
[1] = test system: TSP-1 expression; test: Northern blot of TSP-1 expression; format: cell-based, human; conditions: for TSP-1 expression relative to basal level after inhibitor treatment: MDA-MB-231 cells (FIG. 2B/2); for TSP-1 expression in the absence of HGF/SF induction: inhibitor 24 hours, LF at 1, 3 or 9 μg/ml (FIG. 2D); for HGF/SF-induced shut off (down-regulation) of TSP-1: SK-LMS-1 and MDA-MB-231 cells, inhibitor followed by HGF/SF for 24 hours
Description: (§1) FIG. 1A-1C. HGF/SF up-regulates VEGF and down-regulates TSP-1 expression in SK-LMS-1 cells (FIG. 1A) and MDA-MB-231 cells (FIG. 1B) and HUVEC cells (FIG. 1C). Total RNAs were prepared from SK-LMS-1 cells, MDA-MB-231 cells or HUVEC with or without treatment of recombinant human HGF/SF (200 units/ml) at the indicated time points after stimulation. Total RNAs were also prepared from the SK/HGF cell line, a long-term culture derivative of SK-LMS-1 cells that is autocrine for human HGF/SF (15). Northern Blot was probed with ^32P-radiolabeled TSP-1, VEGF or G3PDH cDNA fragment, respectively. For HUVEC, treatment of recombinant human HGF/SF (200 units/ml) was for 24 hours in the presence or absence of fetal bovine serum (FBS) and Northern Blot analyses were performed using ^32P-radiolabelled probe for human TSP-1, VEGF or GAPDH, respectively. TSP-1 expression in HUVEC cells was decreased in response to HGF/SF treatment. However, VEGF expression was undetectable with or without HGF/SF treatment.
(§2) FIG. 2A: HGF/SF induces activation of MAP kinase and PI3 kinase pathways in SK-LMS-1 cells and MDA-MB-231 cells. Serum-starved cells were treated with or without DMSO (control), PD98059 (80 μM), U0126 (40 μM) or LY294002 (40 μM) for 1 hour, followed by HGF/SF stimulation for 15 minutes (A time point good for observing all the tyrosine phosphorylation statuses). Whole cell extracts were prepared and the state of Met phosphorylation was detected by immunoprecipitation with anti-human Met antibody, followed by Western blot with anti-Phosphotyrosine (and/or anti-human Met antibody). For detection of Erk and Akt, Western blots were probed with anti-phospho p44/42 MAPK, anti-p44/42 MAPK, anti-phospho Akt (Ser473) or anti-Akt antibodies, respectively. FIG. 2B: Negative regulation of TSP-1 expression occurs primarily through the MAP kinase pathway, while positive regulation of VEGF expression occurs through MAP kinase and PI3 kinase pathway. Total RNAs were prepared from cells with or without inhibitor treatment and/or HGF/SF treatment. Northern Blot analyses were performed as described in FIG. 1A-caption. […] Up-regulation of VEGF was inhibited by PD98059, U0126 as well as LY294002. […]: VEGF but not TSP-1 expression was regulated by Stat3 signaling. Total RNAs were prepared from SK/HGF cells with or without overexpression of a dominant negative form of Stat3, Stat3 (17). […] FIG. 2D: LF increases TSP-1 and decreases VEGF expression in MDA-MB-231 human breast cancer cells. Cells were treated with or without indicated inhibitors for 24 hours and then total RNAs were prepared. Northern Blot analyses were performed using ^32P-radiolabelled probe for human TSP-1, VEGF or GAPDH, respectively.
(§3) VEGF was also elevated in long term cultures of SK-LMS-1 cells autocrine for HGF/SF (SK/HGF, 15) (FIG. 1A). […] This effect was seen as early as 6 hours after HGF treatment and continued to 48 hours. More dramatically, TSP-1 expression was eliminated in the SK/HGF cell line.
(§4) HGF/SF, acting through its tyrosine kinase receptor, Met, is known to activate several intracellular signaling pathways, including MAP kinase, PI3 kinase and Stat3 (1, 16). The present inventors asked which pathways might be involved in regulating VEGF and TSP-1 expression. The present inventors treated SK-LMS-1 and MDA-MB-231 cells with (or without) various inhibitors for one hour, followed by HGF/SF stimulation for 15 minutes (FIGS. 2A/1 and 2A/2). Met receptor is tyrosine-phosphorylated in response to HGF/SF, followed by the activation of downstream targets of Erk p44/42 MAPK) and Akt/PI3 kinase. […] RNA samples from SK-LMS-1 and MDA-MB-231 cells treated with individual inhibitors followed by HGF/SF treatment for 24 hours were analyzed by Northern Blot analyses. HGF/SF-induced shut off of TSP-1 was blocked by PD98059 or U0126 but was not affected by LY294002 (FIGS. 2B/1-2B/2), nor by overexpression of Stat3B, a dominant-negative form of Stat3 (FIG. 2C) (17). […]

[2] = test system: VEGF expression; test: Northern blot of VEGF expression; format: cell-based, human; conditions: for VEGF expression in the absence of HGF/SF induction: inhibitor 24 hours, LF at 1, 3 or 9 μg/ml (FIG. 2D); for expression of VEGF induced by HGF/SF: inhibitor followed by HGF/SF for 24 hours; for VEGF expression (up-regulation by HGF/SF): SK-LMS-1 and MDA-MB-231 cells (FIGS. 2B/1, 2B/2); for VEGF expression after HGF/SF treatment: HGF/SF 200 units/ml
Description: as §1, §2, §3, §4

[3] = test system: Erk (p44/42 MAPK); test: Western blot of Erk (p44/42 MAPK) activation after HGF/SF stimulation; format: cell-based, human; conditions: for constitutive level of MAP kinase activity: MDA-MB-231 cells (FIG. 2A/2); for activation of Erk in response to HGF/SF: SK-LMS-1 and MDA-MB-231 cells, inhibitor 1 hour (PD98059 80 μM, U0126 40 μM), then HGF/SF 15 minutes
Description: as §2
HGF/SF, acting through its tyrosine kinase receptor, Met, is known to activate several intracellular signaling pathways, including MAP kinase, PI3 kinase and Stat3 (1, 16). The present inventors asked which pathways might be involved in regulating VEGF and TSP-1 expression. The present inventors treated SK-LMS-1 and MDA-MB-231 cells with (or without) various inhibitors for one hour, followed by HGF/SF stimulation for 15 minutes (FIGS. 2A/1 and 2A/2). Met receptor is tyrosine-phosphorylated in response to HGF/SF, followed by the activation of downstream targets of Erk p44/42 MAPK) and Akt/PI3 kinase. […] RNA samples from SK-LMS-1 and MDA-MB-231 cells treated with individual inhibitors followed by HGF/SF treatment for 24 hours were analyzed by Northern Blot analyses. HGF/SF-induced shut off of TSP-1 was blocked by PD98059 or U0126 but was not affected by LY294002 (FIGS. 2B/1-2B/2), nor by overexpression of Stat3B, a dominant-negative form of Stat3 (FIG. 2C) (17). […] In MDA-MB-231 cells, the present inventors observed a dramatic effect from the MEK MAP kinase inhibitors on TSP-1 (FIG. 2B/2).

[4] = test system: SK/HGF tumor xenografts; test: Subcutaneous tumor growth of SK/HGF-TSP1 versus SK/HGF cells in athymic nude mice; format: in vivo; conditions: TSP-1 overexpression in SK/HGF cells implanted subcutaneously in athymic nude mice; p<0.025
From the text: FIG. 3A-3D. TSP-1 inhibits HGF/SF-induced tumor growth in vivo. FIG. 3A: TSP-1 was ectopically expressed in SK/HGF cells, establishing the SK/HGF-TSP 1 cell line. The expression of TSP-1 in SK/HGF-TSP1 cells was confirmed by Northern blot analysis. FIG. 3B: Tumor growth of SK-LMS cells and the influence of TSP-1 overexpression. SK-LMS-1 control cells, SK/HGF control cells and SK/HGF-TSP 1 cells (clone 26) were subcutaneously implanted in athymic nude mice, respectively. The animals were monitored for tumor growth and tumor volumes (Tvol) were measured twice a week. The Tvol values represent an average of four mice for each group (P<0.025). FIG. 3C: Visualization of the tumors at sacrifice. FIG. 3D: TSP-1 protein in tumor xenografts is derived from SK/HGF-TSP1 cells. Cell extracts were prepared from fresh tumors and TSP-1 protein was detected by anti-TSP-1 antibody under denatured condition.
TSP-1 was overexpressed in SK/HGF cells to generate SK/HGF-TSP1 cells (FIG. 3A). Overexpression of TSP-1 has no effect on cell proliferation or anchorage-independent growth compared the parental SK/HGF cells in vitro (FIGS. 5A-5B). To test whether TSP-1 influences tumorigenicity, the present inventors SK/HGF and SK/HGF-TSP1 cells were subcutaneously implanted in athymic nude mice, and their tumor growth rates were compared. […]

[5] = test system: SK/HGF cells; test: Cell proliferation and anchorage-independent growth in vitro; format: cell-based, human; conditions: TSP-1 overexpression compared with parental SK/HGF cells in vitro
From the text: FIGS. 5A and 5B are graphs showing that overexpression of TSP-1 has no effect on cell proliferation or anchorage-independent growth compared the parental SK/HGF cells in vitro.
TSP-1 was overexpressed in SK/HGF cells to generate SK/HGF-TSP1 cells (FIG. 3A). Overexpression of TSP-1 has no effect on cell proliferation or anchorage-independent growth compared the parental SK/HGF cells in vitro (FIGS. 5A-5B). To test whether TSP-1 influences tumorigenicity, the present inventors SK/HGF and SK/HGF-TSP1 cells were subcutaneously implanted in athymic nude mice, and their tumor growth rates were compared. At early times, no growth differences were observed between the SK/HGF and SK/HGF-TSP1 groups. However, when the tumors grew to a certain size, differences between became more apparent (Student's t test p<0.025). […] TSP-1 protein expression was confirmed in the SK/HGF-TSP1 tumor group by Western blot analysis (FIG. 3D).

[6] = test system: tumor angiogenesis (CD31-positive vessels); test: CD31 immunohistochemical staining of blood vessels in tumor sections; format: in vivo, athymic nude mice; conditions: SK/HGF-TSP1 versus SK/HGF tumors; P<0.01
From the text: FIGS. 4A and 4B/1-4B/6 are a graph and photomicrographs showing that TSP-1 inhibits HGF/SF-induced tumor angiogenesis. […] Three fields (10× magnification) from each stained tumor section were photographed and the numbers of CD31-positive vessels (brown staining) were scored. The numbers represent the average number of blood vessels in sections from four tumors for each group (P<0.01).
To test whether the inhibition of tumor growth by TSP-1 was due to an extrinsic effect by preventing tumor angiogenesis, the present inventors performed immunohistochemical staining using antibodies against mouse endothelial cell surface marker CD31 to detect the number of blood vessels in SK/HGF and SK/HGF-TSP-1 tumor sections.

[7] = test system: VEGF; conditions: cited from earlier work
[8] = HUVEC, HGF/SF 200 units/ml for 24 hours

Row | Compound | TSP-1 expression relative to basal level after inhibitor treatment [1] | TSP-1 expression in the absence of HGF/SF induction ([1]; MDA-MB-231 cells) | HGF/SF-induced shut off (down-regulation) of TSP-1 [1] | VEGF expression in the absence of HGF/SF induction ([2]; MDA-MB-231 cells) | expression of VEGF induced by HGF/SF ([2]; MDA-MB-231 cells) | VEGF expression (up-regulation by HGF/SF) [2] | expression of VEGF induced by HGF/SF ([2]; SK-LMS-1 cells) | constitutive level of MAP kinase activity [3] | activation of Erk in response to HGF/SF [3] | also measured
1 | COc1cccc(-c2cc(=O)c3ccccc3o2)c1N [PD98059] | higher than the basal level | up-regulation of TSP-1 | blocked; also recorded: inhibited | down-regulation of VEGF | suppressed | inhibited | only slightly | inhibited | blocked the activation of Erk | –
2 | N#CC(=C(/N)Sc1ccccc1N)/C(C#N)=C(\N)Sc1ccccc1N [U0126] | higher than the basal level | up-regulation of TSP-1 | blocked; also recorded: inhibited | down-regulation of VEGF | suppressed | inhibited | only slightly | inhibited | blocked the activation of Erk | –
3 | HGF/SF: recombinant human hepatocyte growth factor/scatter factor, ligand of the Met receptor | – | – | – | – | – | – | – | – | – | TSP-1 expression after HGF/SF treatment [1, 8]: decreased; TSP-1 expression after HGF/SF treatment ([1]; MDA-MB-231 cells, 24 and 48 hours after HGF treatment): down-regulation of TSP-1; TSP-1 expression after HGF/SF treatment ([1]; SK-LMS-1 cells, HGF/SF 200 units/ml, 6 to 48 hours): significant decrease in TSP-1 expression; VEGF expression with or without HGF/SF treatment [2, 8]: undetectable; VEGF expression after HGF/SF treatment ([2]; MDA-MB-231 cells, persisted for 48 hours): levels of VEGF increased; VEGF expression after HGF/SF treatment ([2]; SK-LMS-1 cells, up to 48 hours): induced VEGF
4 | TSP-1: thrombospondin-1, angiogenesis antagonist; tested by ectopic overexpression in SK/HGF cells | – | – | – | – | – | – | – | – | – | HGF/SF-dependent tumor growth [4]: partially inhibited; cell proliferation or anchorage-independent growth [5]: no effect; neovascularization (number of CD31-positive vessels) in tumors [6]: Decreased neovascularization
5 | VEGF-Trap: soluble decoy VEGF receptor fused to IgG; high-affinity VEGF blocker | – | – | – | – | – | – | – | – | – | tumor growth and vascularization in vivo ([7]; Holash et al.): effectively suppressed tumor growth and vascularization; vasculature in established xenografts ([7]; Huang et al., followed by tumor regression including lung micrometastases): abolished mature, preexisting vasculature
